# Laboratory results from patent US6706686B2, “Inhibition of histone deacetylase as a treatment for cardiac hypertrophy” (The Regents of the University of Colorado, priority 2001, dated 2004).
# Legend:
# [1] = test system: acetylated lysine residues / Histone H3 in cardiac myocytes; assay: Detection of acetylated lysine residues (Western blot, immunofluorescence); type: cell-based, rat; conditions: exposure for 24 hours
# Description: (§1) Cell culture. Ventricular myocytes from one-day-old rats were plated at low density in MEM with 5% calf serum, and studied in serum-free MEM. Cultures were treated with PE (#P6126, Sigma-Aldrich Corp., St. Louis, Mo.), IL-1 (#501-RL, R&D Systems, Minneapolis, Minn.), TSA (#GR-309, BIOMOL Research Laboratories, Inc., Plymouth Meeting, Pa.) or their vehicles (ascorbic acid for PE; bovine serum albumin for IL-1; dimethyl sulfoxide for TSA).
# Detection of acetylated lysine residues. Total cell extract was subjected to Western blot analysis using antibodies from Cell Signaling Technology (Beverly, Mass.) (acetylated lysine antibody: #9441, acetylated histone H3 antibody at Lysine 9: #9671, acetylated histone H3 antibody at Lysine 23: #9674, histone H3 antibody: #9712). Nuclear localization of acetylated histone H3 was examined by immunostaining using the same antibodies.
# [2] = test system: cultured cardiac myocytes; assay: Myocyte growth by 14C-phenylalanine radiolabeled protein content; type: cell-based, rat
# Description: as §1
# Quantification of myocyte hypertrophy and myocyte-specific mRNA expression. Growth of cultured myocytes was quantified by content of radiolabeled protein after continuous incubation with ^14C-phenylalanine. For evaluation of the myocyte gene program, total RNA was extracted from cells with TRIZol (GIBCO, Carlsbad, Calif.) and used in RNase protection assay with probes for SERCA, α-/β-MyHC, ANP, BNP, and cardiac α-actin. All samples also included glyceraldehyde phosphate dehydrogenase (GAPDH) as an internal control for RNA loading.
# [3] = test system: SERCA, αMyHC, βMyHC promoters in cultured myocytes; assay: CAT reporter assay of myocyte-specific promoters; type: cell-based, rat; conditions: TSA 30 nmol/L
# Description: FIGS. 2A-D. Over-expression of HDACs repress muscle-specific promoters. Cultured myocytes were transfected for 72 hrs. with expression vectors (2 μg per ˜3×10^5 cells) for Flag-tagged HDAC1, 4, 5 (or its backbone vector) and CAT reporter (5 μg) constructs for SERCA (FIG. 2A), αMyHC (FIG. 2B), βMyHC (FIGS. 2C and 2D) genes, plus SV40-driven secreted alkaline phosphatase (SEAP 1 μg, Clontech). TSA was used at 30 nmol/L, and added just after the transfection. PE […] (20 μmol/L) was added 24 hrs. later and CAT assays performed after an additional 48 hours. Mean data are from n=3 different cultures, and are presented as % of pCMV after normalization to SEAP activity in the media. Over-expression of HDAC was confirmed by Western blot for Flag.
# Transfection. Myocytes were transfected using calcium-phosphate co-precipitation with cytomegalovirus promoter driven Flag-tagged expression vectors for HDACs 1, 4, 5 and reporter plasmids carrying the rat promoters for SERCA (3500 bp), αMyHC (2900 bp), or βMyHC (3300 bp) driving expression […] of the chroramphenicol acetyltransferase (CAT) gene. Reporter expression was evaluated after 48 hours as described previously with corection for transfection efficiency with SEAP (BD Biosciences Clontech, Palo Alto, Calif.). Over-expression of HDACs was confirmed by Western blot analyses using anti-Flag M2 antibody (Sigma-Aldrich Corp. St. Louis, Mo.).
# [4] = test system: CMV-Lac Z reporter in neonatal rat cardiomyocytes; assay: CMV-Lac Z reporter (specificity control); type: cell-based; conditions: inhibitor alone or together with phenylephrine
# Description: FIGS. 3A-D. HDAC inhibitors block the activation of ANF reporter by phenylphrine without cytotoxicity. Neonatal rat cardiomyocytes were co-transfected with a total of 1 μg of the mouse 3 kb ANF promoter fragment and CMV-Lac Z plasmids. (FIG. 3A) The ANF promoter is minimally active in unstimulated cardiomyocytes. […] (FIG. 3B) Lac Z expression by the constitutive promoter CMV. Treatment with HDAC inhibitors augmented CMV activity with and without phenylephrine co-treatment. (FIGS. 3C and 3D) The graphs show the measurements of adenylate kinase activity remains constant in the medium after […] of culturing cardiomyocytes in the absence or presence of hypertrophic stimulants FBS, PE or ET-1.
# Transcription assay. Twenty-four hours after plating, cells were transfected with total of 1 μg/ml for 5 hrs using Lipofectamine Plus reagent (Invitrogen, Carlsbad, Calif.). Transfected cells were incubated 24 hrs then treated for an additional 24 hrs. Cells were lysed and their lysates assayed with the Luciferase Assay System (Promega, Madison, Wis.) for luminescence using Lucysoft 2 luminometer (Rosys Anthos, New Castle, Del.).
# [5] = test system: ANF in neonatal cardiomyocytes; assay: ANF chemiluminescence detection, dose response; type: cell-based, rat
# Description: FIGS. 4A-C. […] As in the transfection experiments, phenylephrine (100 µM) induces ANF expression over three-fold. […] (FIGS. 4B and 4C) The graphs show a reduction of the chemiluminent detection of ANF in the culture medium with increasing concentrations of the HDAC inhibitors TSA (FIG. 4B) and sodium butyrate (FIG. 4C) when co-cultured with the hypertrophic stimulants FBS, PE or ET-1.
# Chemilumenescence. Neonatal cardiomyocytes were seeded onto 96-well plates and treated for 72 hrs. The cells were washed twice in 1×PBS, fixed in 4% paraformaldehyde/1×PBS, and permeabilized with 0.1% Triton-X100. After blocking, the cells were incubated 1 hr. with 10 μg/ml monoclonal anti-ANF antibody (Biodesign). The wells were washed twice with 1% BSA/1× PBS and then incubated for 1 hr. with goat anti-mouse IgG-Fc-HRP (Jackson Labs, […]) at 1:1000 in 1× PBS/1% BSA. Cells were washed twice with 1% BSA/1×PBS, twice with 1× PBS, then blotted dry. Luminol (Pierce, Rockford, Ill.) was added and the chemiluminescence was detected in a Fusion Plate Reader (Perkin Elmer/Packard).
# [6] = test system: rat neonatal cardiomyocytes; assay: Gene chip array analysis; type: cell-based; conditions: two-or-more-fold difference
# Description: FIGS. 7A-B. TSA induces the activation of genes that are involved in cardiomyocyte differentiation. […] (FIG. 7B) Four genes were inactivated by phenylephrine and activated by TSA (results from one phenylephrine chip, two phenylephrine/TSA chips, and one TSA chip.)
# Gene chip and analysis. RNA was isolated using Trizol (Invitrogen, Carlsbad, Calif.) from untreated, phenylephrine-treated, TSA-treated, and phenylephine/TSA co-treated rat neonatal cardiomyocytes. The RNAs were prepared and hybridized on U34A chips (Affymetrix, Inc., Santa Clara, Calif.) according to Affymetrix protocols. The intensity of hybridization was detected by and changes in gene expression were determined and analyzed by Micro Array Suite 5.0 (Affymetrix, Inc., Santa Clara, Calif.).
# [7] = test system: mouse model; conditions: Takahashi et al, 1996; cited from earlier work
structure (smiles),measurement,setting,value
"CC(/C=C/C(=O)NO)=C\[C@@H](C)C(=O)c1ccc(N(C)C)cc1 [TSA, Trichostatin A]","protein acetylation (acetylated lysine residues, Histone H3)",[1],effectively increased acetylated lysine residues
same,myocyte growth,[2]; inhibitor by itself,had no effect on myocyte growth
same,hypertrophic responses to PE and IL-1 (growth),[2]; with PE or IL-1,enhanced the individual hypertrophic responses to both PE and IL-1
same,basal SERCA2 promoter activity,[3],increased the basal promoter activities
same,basal αMyHC promoter activity,[3],increased the basal promoter activities
same,basal βMyHC promoter activity,[3],not that of βMyHC
same,transcriptional activity of CMV-Lac Z reporter,[4],increased the transcriptional activity of the CMV-Lac Z reporter
same,minimal concentration that inhibited the hypertrophic response (ANF) of each growth stimulant,"[5]; FBS, PE, ET-1",40 nM
same,"induction of ANF expression by FBS, PE and ET-1",[5]; increasing concentrations,countered the induction of ANF expression
same,ANF expression at very low doses,[5]; very low doses (0.2 nM printed for sodium butyrate),only a marginal increase
same,"expression of big Tau-microtubule-associated protein, ubiquitin carboxyl-terminal hydrolase, Thy-1 cell-surface glycoprotein, MyHC class I antigen",[6]; genes down-regulated by phenylephrine,up-regulated by TSA
same,"expression of cytochrome oxidase subunit VIII, mouse T-complex protein, insulin growth factor binding protein-3",[6]; genes up-regulated by phenylephrine,down-regulated by TSA
same,immunosuppression,[7],induces immunsuppression
